Experimental data: US9492471B2, “Methods of treating a disease or disorder associated with Bruton'S Tyrosine Kinase” (Celgene Avilomics Research, Inc., priority 2013, dated 2016)
Like-named read-outs stand apart in the source and are kept apart here.

What was measured:
Assay in all cases: HotSpot kinase profiling
Format in all cases: biochemical
ALK = target: T1, ALK (Homo sapiens, UniProt Q9UM73)
T1 construct: purchased Reaction Biology Corp
Method in brief: (§1)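 Activity is measured by radiolabel transfer captured on P81 filters after a 2 h room-temperature reaction of kinase, substrate and cofactors. Values are percent inhibition against DMSO.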

Aurora B = target: T2, Aurora B (Homo sapiens, UniProt Q96GD4)
T2 construct: purchased Reaction Biology Corp
Method in brief: as §1

ERK2/MAPK1 = target: T3, ERK2/MAPK1 (Homo sapiens, UniProt P28482)
T3 construct: purchased Reaction Biology Corp
Method in brief: as §1

GRK1 = target: T4, GRK1 (Homo sapiens, UniProt Q15835)
T4 construct: purchased Reaction Biology Corp
T4 sequence (Q15835 1-563): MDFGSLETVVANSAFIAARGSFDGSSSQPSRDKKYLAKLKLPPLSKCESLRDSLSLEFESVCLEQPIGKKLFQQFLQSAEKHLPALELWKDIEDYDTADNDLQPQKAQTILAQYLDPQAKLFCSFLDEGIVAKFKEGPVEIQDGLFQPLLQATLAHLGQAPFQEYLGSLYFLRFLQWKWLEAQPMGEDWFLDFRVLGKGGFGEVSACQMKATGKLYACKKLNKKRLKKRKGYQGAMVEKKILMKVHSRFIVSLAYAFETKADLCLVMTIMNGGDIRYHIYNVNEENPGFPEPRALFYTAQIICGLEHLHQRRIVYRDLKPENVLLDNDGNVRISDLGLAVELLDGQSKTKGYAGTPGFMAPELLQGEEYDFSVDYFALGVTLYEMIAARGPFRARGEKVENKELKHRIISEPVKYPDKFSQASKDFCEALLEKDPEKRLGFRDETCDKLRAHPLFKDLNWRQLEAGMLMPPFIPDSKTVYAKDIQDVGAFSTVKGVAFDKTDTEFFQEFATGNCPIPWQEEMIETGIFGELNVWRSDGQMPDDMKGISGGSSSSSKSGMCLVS
Method in brief: as §1

JNK1 = target: T5, JNK1 (Homo sapiens, UniProt P45983)
T5 construct: purchased Reaction Biology Corp
Method in brief: as §1

MEK1 = target: T6, MEK1 (Homo sapiens, UniProt Q02750)
T6 construct: purchased Reaction Biology Corp
Method in brief: as §1

MELK = target: T7, MELK (Homo sapiens, UniProt Q14680)
T7 construct: purchased Reaction Biology Corp
Method in brief: as §1

SRMS = target: T8, SRMS (Homo sapiens, UniProt Q9H3Y6)
T8 construct: purchased Reaction Biology Corp
Method in brief: as §1

STK25/YSK1 = target: T9, STK25/YSK1 (Homo sapiens, UniProt O00506)
T9 construct: purchased Reaction Biology Corp
Method in brief: as §1

SYK = target: T10, SYK (Homo sapiens, UniProt P43405)
T10 construct: purchased Reaction Biology Corp

TNK1 = target: T11, TNK1 (Homo sapiens, UniProt Q13470)
T11 construct: purchased Reaction Biology Corp
T11 sequence (Q13470 1-666): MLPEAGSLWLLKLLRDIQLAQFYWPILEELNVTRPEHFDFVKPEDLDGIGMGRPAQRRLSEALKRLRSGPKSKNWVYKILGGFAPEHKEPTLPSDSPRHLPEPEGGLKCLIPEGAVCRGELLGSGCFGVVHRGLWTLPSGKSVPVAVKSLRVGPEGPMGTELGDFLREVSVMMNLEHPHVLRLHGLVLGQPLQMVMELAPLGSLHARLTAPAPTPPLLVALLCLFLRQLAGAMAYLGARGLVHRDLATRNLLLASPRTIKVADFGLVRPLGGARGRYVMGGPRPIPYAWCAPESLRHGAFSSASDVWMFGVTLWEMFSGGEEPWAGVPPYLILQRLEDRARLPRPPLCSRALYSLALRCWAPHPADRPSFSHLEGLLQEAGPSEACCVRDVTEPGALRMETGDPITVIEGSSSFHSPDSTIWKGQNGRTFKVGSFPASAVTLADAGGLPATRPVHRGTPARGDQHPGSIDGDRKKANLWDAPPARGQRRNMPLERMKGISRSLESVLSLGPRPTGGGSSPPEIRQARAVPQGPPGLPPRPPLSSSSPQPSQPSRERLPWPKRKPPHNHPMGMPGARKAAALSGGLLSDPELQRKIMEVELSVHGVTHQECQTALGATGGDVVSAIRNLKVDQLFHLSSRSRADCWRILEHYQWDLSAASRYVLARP
Method in brief: as §1

[1] = read-out: % Enzyme Activity (relative to DMSO controls) Run 1
[2] = read-out: % Enzyme Activity (relative to DMSO controls) Run 2

T1 sequence (Q9UM73 19-1620): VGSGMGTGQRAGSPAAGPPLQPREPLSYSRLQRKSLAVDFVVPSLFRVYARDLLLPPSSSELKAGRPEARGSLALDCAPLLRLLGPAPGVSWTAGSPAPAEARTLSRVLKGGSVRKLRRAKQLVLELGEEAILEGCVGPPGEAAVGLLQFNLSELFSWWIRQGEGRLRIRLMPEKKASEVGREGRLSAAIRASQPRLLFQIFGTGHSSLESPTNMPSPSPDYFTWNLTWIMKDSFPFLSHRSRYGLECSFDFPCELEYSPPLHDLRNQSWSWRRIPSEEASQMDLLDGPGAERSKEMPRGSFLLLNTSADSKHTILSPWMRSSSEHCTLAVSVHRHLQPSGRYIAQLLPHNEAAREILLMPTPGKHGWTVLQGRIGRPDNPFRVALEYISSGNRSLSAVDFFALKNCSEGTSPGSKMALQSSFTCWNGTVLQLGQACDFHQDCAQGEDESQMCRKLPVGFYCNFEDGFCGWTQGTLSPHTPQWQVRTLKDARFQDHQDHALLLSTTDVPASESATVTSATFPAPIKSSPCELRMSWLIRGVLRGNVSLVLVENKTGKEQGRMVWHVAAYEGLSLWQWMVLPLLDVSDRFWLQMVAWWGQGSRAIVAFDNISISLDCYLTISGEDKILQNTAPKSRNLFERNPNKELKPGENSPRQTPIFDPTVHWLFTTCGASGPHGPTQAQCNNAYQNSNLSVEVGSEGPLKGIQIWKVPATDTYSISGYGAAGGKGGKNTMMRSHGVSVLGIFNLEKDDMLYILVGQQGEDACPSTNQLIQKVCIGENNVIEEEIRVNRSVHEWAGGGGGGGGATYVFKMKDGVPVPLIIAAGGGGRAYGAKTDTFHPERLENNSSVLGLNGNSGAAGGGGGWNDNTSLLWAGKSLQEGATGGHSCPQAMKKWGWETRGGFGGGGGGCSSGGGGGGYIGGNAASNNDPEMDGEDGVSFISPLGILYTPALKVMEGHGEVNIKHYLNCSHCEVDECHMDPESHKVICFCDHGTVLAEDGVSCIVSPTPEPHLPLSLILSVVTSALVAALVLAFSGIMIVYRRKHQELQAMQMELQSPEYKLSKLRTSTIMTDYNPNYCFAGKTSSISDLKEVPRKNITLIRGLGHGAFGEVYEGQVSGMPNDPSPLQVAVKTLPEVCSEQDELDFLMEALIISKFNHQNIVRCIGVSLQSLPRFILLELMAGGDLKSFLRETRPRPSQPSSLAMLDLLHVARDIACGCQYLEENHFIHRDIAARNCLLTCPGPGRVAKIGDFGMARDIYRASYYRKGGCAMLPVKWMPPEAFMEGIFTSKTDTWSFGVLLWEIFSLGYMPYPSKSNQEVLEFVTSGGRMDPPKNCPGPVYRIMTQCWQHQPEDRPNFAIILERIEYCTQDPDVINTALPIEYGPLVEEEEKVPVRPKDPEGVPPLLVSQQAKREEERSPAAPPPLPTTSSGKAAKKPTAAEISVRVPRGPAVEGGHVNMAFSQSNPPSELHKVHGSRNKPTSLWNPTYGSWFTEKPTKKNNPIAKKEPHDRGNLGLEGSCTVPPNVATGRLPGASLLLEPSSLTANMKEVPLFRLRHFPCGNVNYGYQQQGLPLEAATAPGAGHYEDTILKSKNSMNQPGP
T6 sequence (Q02750 whole entry): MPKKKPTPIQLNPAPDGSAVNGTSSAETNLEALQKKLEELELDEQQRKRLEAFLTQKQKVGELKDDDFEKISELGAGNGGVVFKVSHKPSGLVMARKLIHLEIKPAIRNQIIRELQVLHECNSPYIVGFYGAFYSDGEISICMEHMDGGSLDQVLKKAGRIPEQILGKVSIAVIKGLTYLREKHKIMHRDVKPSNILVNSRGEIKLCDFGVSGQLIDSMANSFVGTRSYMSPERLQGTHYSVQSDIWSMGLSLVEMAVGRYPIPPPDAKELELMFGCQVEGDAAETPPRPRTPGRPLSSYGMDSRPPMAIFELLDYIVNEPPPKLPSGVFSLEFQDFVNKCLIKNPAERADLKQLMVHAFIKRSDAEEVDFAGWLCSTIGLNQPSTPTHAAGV
T8 sequence (Q9H3Y6 whole entry): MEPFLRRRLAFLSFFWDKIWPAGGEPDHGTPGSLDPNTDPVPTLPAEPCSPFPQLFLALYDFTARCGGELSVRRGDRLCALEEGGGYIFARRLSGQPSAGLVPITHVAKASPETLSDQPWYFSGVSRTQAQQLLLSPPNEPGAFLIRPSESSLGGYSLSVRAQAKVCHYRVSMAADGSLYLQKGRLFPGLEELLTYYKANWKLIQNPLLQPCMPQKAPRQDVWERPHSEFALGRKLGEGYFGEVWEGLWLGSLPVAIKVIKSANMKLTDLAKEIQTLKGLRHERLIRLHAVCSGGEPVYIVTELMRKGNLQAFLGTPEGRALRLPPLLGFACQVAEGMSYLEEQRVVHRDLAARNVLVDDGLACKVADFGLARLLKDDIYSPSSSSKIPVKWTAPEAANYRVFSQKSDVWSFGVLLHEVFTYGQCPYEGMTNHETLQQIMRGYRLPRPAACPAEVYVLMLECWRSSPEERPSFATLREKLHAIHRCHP
T7 sequence (Q14680 whole entry): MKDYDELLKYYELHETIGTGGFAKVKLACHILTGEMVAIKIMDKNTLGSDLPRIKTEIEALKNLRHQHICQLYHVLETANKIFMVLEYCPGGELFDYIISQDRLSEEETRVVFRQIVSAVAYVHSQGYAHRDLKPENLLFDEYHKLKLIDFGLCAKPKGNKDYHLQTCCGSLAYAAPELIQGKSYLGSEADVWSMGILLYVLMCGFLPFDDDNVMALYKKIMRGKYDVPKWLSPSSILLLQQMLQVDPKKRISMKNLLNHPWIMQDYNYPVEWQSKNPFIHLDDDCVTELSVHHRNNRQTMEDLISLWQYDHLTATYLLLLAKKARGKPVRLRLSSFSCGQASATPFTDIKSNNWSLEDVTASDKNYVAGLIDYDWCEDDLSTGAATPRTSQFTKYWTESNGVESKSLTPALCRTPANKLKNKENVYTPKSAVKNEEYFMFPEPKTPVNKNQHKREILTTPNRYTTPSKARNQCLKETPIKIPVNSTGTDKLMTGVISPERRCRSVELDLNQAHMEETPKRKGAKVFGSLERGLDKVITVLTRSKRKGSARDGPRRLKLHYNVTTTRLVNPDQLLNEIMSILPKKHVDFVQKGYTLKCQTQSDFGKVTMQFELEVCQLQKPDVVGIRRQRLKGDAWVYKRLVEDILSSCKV
T3 sequence (P28482 whole entry): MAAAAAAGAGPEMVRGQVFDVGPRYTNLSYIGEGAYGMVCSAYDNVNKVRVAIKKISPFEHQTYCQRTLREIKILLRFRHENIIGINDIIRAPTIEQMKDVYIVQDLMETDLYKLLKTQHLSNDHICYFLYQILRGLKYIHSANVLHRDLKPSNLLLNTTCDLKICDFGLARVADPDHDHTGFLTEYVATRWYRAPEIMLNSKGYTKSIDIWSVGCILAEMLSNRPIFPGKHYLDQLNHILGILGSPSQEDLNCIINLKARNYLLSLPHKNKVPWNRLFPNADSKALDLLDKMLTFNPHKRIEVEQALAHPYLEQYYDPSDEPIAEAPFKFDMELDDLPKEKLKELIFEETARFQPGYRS
T2 sequence (Q96GD4 whole entry): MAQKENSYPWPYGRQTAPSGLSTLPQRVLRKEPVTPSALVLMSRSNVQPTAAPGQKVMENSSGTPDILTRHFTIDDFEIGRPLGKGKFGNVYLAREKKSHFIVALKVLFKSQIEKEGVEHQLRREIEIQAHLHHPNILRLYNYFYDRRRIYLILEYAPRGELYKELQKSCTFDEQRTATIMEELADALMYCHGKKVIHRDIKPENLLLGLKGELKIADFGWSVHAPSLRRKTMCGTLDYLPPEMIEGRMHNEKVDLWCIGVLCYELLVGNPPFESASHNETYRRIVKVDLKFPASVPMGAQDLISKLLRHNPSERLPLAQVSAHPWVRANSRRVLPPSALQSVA
T5 sequence (P45983 whole entry): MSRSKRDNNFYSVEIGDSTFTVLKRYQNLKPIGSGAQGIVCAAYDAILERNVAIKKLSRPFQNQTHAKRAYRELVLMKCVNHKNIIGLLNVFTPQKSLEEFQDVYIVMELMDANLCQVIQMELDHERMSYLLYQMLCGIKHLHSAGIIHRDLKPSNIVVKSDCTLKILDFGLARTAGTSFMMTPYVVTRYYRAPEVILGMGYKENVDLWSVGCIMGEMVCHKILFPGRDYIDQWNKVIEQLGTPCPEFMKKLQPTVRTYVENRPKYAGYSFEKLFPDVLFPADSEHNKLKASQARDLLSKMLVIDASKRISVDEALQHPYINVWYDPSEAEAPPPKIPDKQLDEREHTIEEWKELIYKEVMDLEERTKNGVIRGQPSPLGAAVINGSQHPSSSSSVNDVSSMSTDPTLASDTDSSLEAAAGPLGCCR
T9 sequence (O00506 whole entry): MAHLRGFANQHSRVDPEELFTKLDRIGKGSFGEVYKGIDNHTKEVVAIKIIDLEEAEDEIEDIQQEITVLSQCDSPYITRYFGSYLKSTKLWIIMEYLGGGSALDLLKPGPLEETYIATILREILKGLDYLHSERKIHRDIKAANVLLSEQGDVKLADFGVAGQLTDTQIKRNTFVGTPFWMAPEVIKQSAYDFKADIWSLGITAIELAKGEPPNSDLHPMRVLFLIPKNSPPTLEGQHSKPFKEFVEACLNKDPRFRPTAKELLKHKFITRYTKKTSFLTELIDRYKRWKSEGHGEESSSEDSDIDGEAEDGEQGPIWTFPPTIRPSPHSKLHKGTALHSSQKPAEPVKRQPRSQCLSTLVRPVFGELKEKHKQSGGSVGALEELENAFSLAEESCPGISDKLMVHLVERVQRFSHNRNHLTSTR

Question: `C=CC(=O)Nc1cccc(Nc2nc(Nc3ccc(OCCOC)c(F)c3)ncc2F)c1` [Compound 2] was tested. Which inhibition at 3 µM (ALK) did it give?
Answer: Its inhibition at 3 µM is 16.9%.

Question: What about the remaining activity at 3 µM (ALK; [1]) of the same compound?
Answer: Its remaining activity at 3 µM is 82.5%.

Question: And the remaining activity at 3 µM (ALK; [2])?
Answer: The remaining activity at 3 µM was 83.6%.

Question: What about the inhibition at 3 µM (Aurora B) of the same compound?
Answer: Its inhibition at 3 µM is 86.9%.

Question: And the remaining activity at 3 µM (Aurora B; [1])?
Answer: Its remaining activity at 3 µM is 13.2%.

Question: What about the remaining activity at 3 µM (Aurora B; [2]) of the same compound?
Answer: Its remaining activity at 3 µM is 12.9%.

Question: What about the inhibition at 3 µM (ERK2/MAPK1) of the same compound?
Answer: Its inhibition at 3 µM is -4.25%.

Question: And the remaining activity at 3 µM (ERK2/MAPK1; [1])?
Answer: The remaining activity at 3 µM was 106%.

Question: What about the remaining activity at 3 µM (ERK2/MAPK1; [2]) of the same compound?
Answer: Its remaining activity at 3 µM is 103%.

Question: What about the inhibition at 3 µM (GRK1) of the same compound?
Answer: The inhibition at 3 µM was -3.47%.

Question: What about the remaining activity at 3 µM (GRK1; [1]) of the same compound?
Answer: Its remaining activity at 3 µM is 104%.

Question: What about the remaining activity at 3 µM (GRK1; [2]) of the same compound?
Answer: Its remaining activity at 3 µM is 103%.

Question: What about the inhibition at 3 µM (JNK1) of the same compound?
Answer: Its inhibition at 3 µM is 12.1%.

Question: And the remaining activity at 3 µM (JNK1; [1])?
Answer: Its remaining activity at 3 µM is 88.1%.

Question: What about the remaining activity at 3 µM (JNK1; [2]) of the same compound?
Answer: Its remaining activity at 3 µM is 87.7%.

Question: And the inhibition at 3 µM (MEK1)?
Answer: Its inhibition at 3 µM is -10.3%.

Question: And the remaining activity at 3 µM (MEK1; [1])?
Answer: The remaining activity at 3 µM was 109%.

Question: And the remaining activity at 3 µM (MEK1; [2])?
Answer: The remaining activity at 3 µM was 112%.

Question: What about the inhibition at 3 µM (MELK) of the same compound?
Answer: The inhibition at 3 µM was -8.07%.

Question: And the remaining activity at 3 µM (MELK; [1])?
Answer: The remaining activity at 3 µM was 109%.

Question: What about the remaining activity at 3 µM (MELK; [2]) of the same compound?
Answer: The remaining activity at 3 µM was 107%.

Question: What about the inhibition at 3 µM (SRMS) of the same compound?
Answer: The inhibition at 3 µM was -23.1%.

Question: What about the remaining activity at 3 µM (SRMS; [1]) of the same compound?
Answer: The remaining activity at 3 µM was 124%.

Question: What about the remaining activity at 3 µM (SRMS; [2]) of the same compound?
Answer: Its remaining activity at 3 µM is 123%.

Question: And the inhibition at 3 µM (STK25/YSK1)?
Answer: The inhibition at 3 µM was 5.72%.

Question: What about the remaining activity at 3 µM (STK25/YSK1; [1]) of the same compound?
Answer: Its remaining activity at 3 µM is 94.5%.

Question: And the remaining activity at 3 µM (STK25/YSK1; [2])?
Answer: Its remaining activity at 3 µM is 94.1%.

Question: And the inhibition at 3 µM (SYK)?
Answer: Its inhibition at 3 µM is 22.4%.

Question: And the remaining activity at 3 µM (SYK; [1])?
Answer: Its remaining activity at 3 µM is 78%.

Question: And the remaining activity at 3 µM (SYK; [2])?
Answer: The remaining activity at 3 µM was 77.1%.

Question: And the inhibition at 3 µM (TNK1)?
Answer: The inhibition at 3 µM was 83.7%.

Question: What about the remaining activity at 3 µM (TNK1; [1]) of the same compound?
Answer: The remaining activity at 3 µM was 15.9%.

Question: And the remaining activity at 3 µM (TNK1; [2])?
Answer: Its remaining activity at 3 µM is 16.6%.
